Assay [1] relates to psoriasis caused by imiquimod. Kind of assay: Epithelial thickness of back skin by H&E staining in imiquimod psoriasis model. It counts as in vivo, Balb/c mice. The note with it: after treatment for a week, compared to the IMQ group. The source says: (§1) 6-week-old male Balb/c mice (Kangwon Life Science, Korea) were purchased and acclimated for a week, and psoriasis was induced using 5% imiquimod (Donga ST, Korea). FIG. 1 is a schematic experimental scheme of an animal model. Anti-psoriatic efficacy was investigated using a total of 20 animal models including 5 animals per experimental group.
(§2) In order to determine the effect of the extract of Thalictrum squarrosum steph on psoriasis caused by imiquimod, the experimental animals of Section 2-1 were used. The following four experimental groups were constructed and five animals were randomly assigned to each group:
(§3) The experiment was conducted by inducing psoriasis with IMQ cream and then performing daily application in the amount shown in FIG. 2 to the experimental group and the DEX group. FIG. 3 is an image showing the treatment group for 7 days compared to the psoriasis-induced model as the animal experimental model.
After treatment for a week, the back skin tissue was removed from each animal, and then a paraffin block was prepared. The paraffin block was cut to 5 μm to prepare a slide sample, and then the change in the thickness of the skin tissue was measured through H&E staining.

Assay [2] relates to filaggrin, loricrin, keratin 1 and keratin 14. Kind of assay: Biomarkers for epithelial tissue damage in back skin by immunofluorescence. It counts as in vivo, Balb/c mice. The note with it: after treatment for a week, versus IMQ group.
Text: as §1, §2, §3
After treatment for a week, back skin tissue was removed from each animal and a paraffin block was then prepared. A paraffin block was cut to 5 μm to prepare a slide sample, and then the change in biomarkers for epithelial tissue damage due to psoriasis was measured through immunofluorescence.

With `C[C@@H]1C[C@H]2[C@@H]3CCC4=CC(=O)C=C[C@]4(C)[C@@]3(F)[C@@H](O)C[C@]2(C)[C@@]1(O)C(=O)CO` [DEX, dexamethasone], the “thickness of the epithelial layer” value in assay [1] is on record as “decreased thickness”. Also, in assay [2], the “expression level of filaggrin” value was “increased”, the “expression level of keratin 1” value was “increased”, the “expression level of keratin 14” value is recorded as “increased” and the “expression level of loricrin” value is on record as “increased”.

Source of the values: US11547735B2, “Composition for ameliorating psoriasis symptoms containing extract of Thalictrum squarrosum steph” (KOREA INSTITUTE OF SCIENCE AND TECHNOLOGY, priority 2020, dated 2023).
